Source: ChEMBL document CHEMBL3044900, “Synthesis of pregnenolonedanazolethylendiamine conjugate: relationship between descriptors log P, , R m, and V m and its antibacterial activity in S. aureus and V. cholerae” (2011)
Values after ≈ are worked out from the molar mass of the structure shown.

What was measured:
[1] = tested on: Vibrio cholerae; test: Antibacterial activity against Vibrio cholerae ATCC 14035 incubated for 24 hr followed by compound washout measured after 24 hr by dilution method; type: functional
[2] = tested on: Staphylococcus aureus; test: Antibacterial activity against Staphylococcus aureus ATCC 25923 incubated for 24 hr followed by compound washout measured after 24 hr by dilution method; type: functional

Molecule | MIC ([1]; ATCC 14035, 24 h) | MIC ([2]; ATCC 25923, 24 h) | MIC [1] | MIC [2]
C#C[C@@]1(OC(=O)CCC(=O)O[C@H]2CC[C@@]3(C)C(=CC[C@H]4[C@@H]5CC[C@H](C(C)=O)[C@@]5(C)CC[C@@H]43)C2)CC[C@H]2[C@@H]3CCC4=C(CNCCN)c5oncc5C[C@]4(C)[C@H]3CC[C@@]21C | 1.23 µM (≈ 0.994 µg/mL) | 1.23 µM (≈ 0.994 µg/mL) |  | 
CO/N=C(\C(=O)N[C@@H]1C(=O)N2C(C(=O)O)=C(COC(C)=O)CS[C@H]12)c1csc(N)n1 [CEFOTAXIME] | 0.523 µM (≈ 0.238 µg/mL) | 0.261 µM (≈ 0.119 µg/mL) |  | 
O=C(O)c1cn(C2CC2)c2cc(N3CCNCC3)c(F)cc2c1=O [CIPROFLOXACIN] | 3.01 µM (≈ 0.997 µg/mL) | 0.377 µM (≈ 0.125 µg/mL) |  | 
C#C[C@@]1(OC(=O)CCC(=O)O[C@H]2CC[C@@]3(C)C(=CC[C@H]4[C@@H]5CC[C@H](C(C)=O)[C@@]5(C)CC[C@@H]43)C2)CC[C@H]2[C@@H]3CCC4=Cc5oncc5C[C@]4(C)[C@H]3CC[C@@]21C [DANAZOL-PREGNENOLONE] | 1.32 µM (≈ 0.972 µg/mL) | 0.663 µM (≈ 0.488 µg/mL) |  | 
GENTAMICIN |  |  | 0.0134 µM | 0.274 µM
